Experimental findings from patent publication US20170000133A1, “BENZOXABOROLE FUNGICIDES” (SYNGENTA PARTICIPATIONS AG, priority 2013, published 2017) are described below.

Bounds are passed on as bounds.

In series [1] the test system is Mycosphaerella arachidis (Cercospora arachidicola). Description: Mycosphaerella arachidis (Cercospora arachidicola) / liquid culture (early leaf spot). Particulars: PDB potato dextrose broth, 24° C., 4-5 days after application, read-out: disease control (inhibition of growth determined photometrically). The series is classed as cell-based. In outline: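 Test compound, applied at 200 ppm from DMSO solution, was combined with spore-containing potato dextrose broth. Photometric growth inhibition was scored after 4-5 days at 24° C.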

Series [2] deals with Glomerella lagenarium (Colletotrichum lagenarium). Description: Glomerella lagenarium (Colletotrichum lagenarium) / liquid culture (anthracnose). The series is classed as cell-based. To be noted: Colletotrichum orbiculare, PDB potato dextrose broth, 24° C., 3-4 days after application, read-out: disease control (inhibition of growth measured photometrically). In outline: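 Compound was applied at 200 ppm from DMSO solution, then potato dextrose broth carrying cryostored fungal spores was added. Growth inhibition was measured by photometry after 3-4 days of incubation at 24° C.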

Series [3] deals with Mycosphaerella graminicola (Septoria tritici). Description: Mycosphaerella graminicola (Septoria tritici) / liquid culture (Septoria blotch). The class given is cell-based. To be noted: Zymoseptoria tritici, PDB potato dextrose broth, 24° C., 4-5 days after application, read-out: disease control (inhibition of growth determined photometrically). The method, boiled down:
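Growth inhibition was read photometrically 4-5 days after application, following incubation at 24° C of fungal conidia in potato dextrose broth over test compound (200 ppm, from DMSO solution) in microtiter plates.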

For a further series, the system named is Gaeumannomyces graminis. The experiment in a line: Gaeumannomyces graminis / liquid culture (take-all of cereals). The series is classed as cell-based. To be noted: PDB potato dextrose broth, 24° C., 4-5 days after application, read-out: disease control (inhibition of growth determined photometrically). In outline:
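Growth inhibition measured photometrically 4–5 days post-application, following incubation at 24 °C. Test compound, applied from DMSO at 200 ppm, mixed with fungal mycelial fragments in potato dextrose broth.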

In another series the test system is Fusarium culmorum. Description: microbe, parasite or virus in culture. The class given is cell-based. Particulars: read-out: disease control (inhibition of growth determined visually).
The subject of another series is Plasmopara viticola. Description: whole plant or invertebrate. The class given is in vivo. Particulars: foliar, read-out: disease control.
Series [4] relates to Thanatephorus cucumeris (Rhizoctonia solani). The experiment in a line: Thanatephorus cucumeris (Rhizoctonia solani) / liquid culture (foot rot, damping-off). The class given is cell-based. To be noted: PDB potato dextrose broth, 24° C., 3-4 days after application, read-out: disease control (inhibition of growth determined photometrically). In outline:
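Photometric growth-inhibition readout taken 3-4 days after application, with cultures incubated at 24 °C. Test compound was applied at 200 ppm from DMSO solution to R. solani mycelial fragments in PDB.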

For another series, the system named is Pythium ultimum. Description: Pythium ultimum / liquid culture (seedling damping off). The class given is cell-based. To be noted: Globisporangium ultimum; 200 ppm; potato dextrose broth, 24° C., 2-3 days after application; read-out: disease control (inhibition of growth determined photometrically).
The subject of series [5] is Monographella nivalis (Microdochium nivale). The experiment in a line: Monographella nivalis (Microdochium nivale) / liquid culture (foot rot cereals). The class given is cell-based. Particulars: PDB potato dextrose broth, 24° C., 4-5 days after application, read-out: disease control (inhibition of growth determined photometrically).

As a reminder, the inhibition is the share of the control response that was lost under treatment. `COc1ccc(OCCOC(=O)c2ccc3c(c2)B(O)OC3)cc1` [Compound 344]: the inhibition at 200 ppm (in series [1]; in series [2]; in series [3]; in the series with Gaeumannomyces graminis; in the series with Fusarium culmorum; in series [4]) was not below 80% each time. The inhibition at 200 ppm (in the series on Pythium ultimum; in series [5]) was not below 80% throughout. For the same compound, the pest or weed control at 200 ppm with Plasmopara viticola is not below 80%.

For the compound `O=C(OCCOc1ccc(Cl)cc1)c1cc2c(cc1Cl)COB2O` [Compound 226], the inhibition at 200 ppm (in series [1]; in series [2]; in series [3]; in the series on Gaeumannomyces graminis; in the series with Fusarium culmorum; in series [4]) was not below 80% throughout. Besides, the inhibition at 200 ppm (in the series with Pythium ultimum; in [5]) was not below 80% throughout. In addition, the pest or weed control at 200 ppm with Plasmopara viticola is not below 80%.

By melting point is commonly meant the temperature, or range, at which the solid turns liquid. `COC(CNC(=O)c1cc2c(cc1F)COB2O)OC` [Compound 53] showed a melting point of 150 to 152 °C. Besides, the inhibition at 200 ppm in the series on Pythium ultimum was not below 80%.

Regarding `O=C(OCc1ccco1)c1ccc2c(c1)B(O)OC2` [Compound 336], the inhibition at 200 ppm (in series [1]; in [2]; in series [3]; in the series on Gaeumannomyces graminis; in the series with Fusarium culmorum; in series [4]) was not below 80% in each case. Also, the inhibition at 200 ppm (with Pythium ultimum; in series [5]) was not below 80% throughout. Moreover, in the series with Plasmopara viticola, the pest or weed control at 200 ppm is not below 80%.

`NC(=O)c1cc2c(cc1F)COB2O` [Compound 436] yielded a melting point of 216 to 218 °C. The inhibition at 200 ppm in the series on Pythium ultimum is not below 80%.

For `O=C(OC1CCC1)c1ccc2c(c1)B(O)OC2` [Compound 332], the inhibition at 200 ppm (in [1]; in series [3]; in the series on Fusarium culmorum; in series [4]; in the series on Pythium ultimum; in series [5]) was not below 80% each time. Besides, the pest or weed control at 200 ppm in the series with Plasmopara viticola was not below 80%.

For the compound `O=C(OCCc1c(Cl)cccc1Cl)c1cc2c(cc1F)COB2O` [Compound 433], the inhibition at 200 ppm (in the series with Gaeumannomyces graminis; with Fusarium culmorum; in [4]; in series [5]) was not below 80% throughout. Moreover, the pest or weed control at 200 ppm with Plasmopara viticola was not below 80%.

Turning to `CON(C)C(=O)c1cc2c(cc1F)COB2O` [Compound 51], the melting point is 144 to 146 °C. The inhibition at 200 ppm in the series with Pythium ultimum was not below 80%.

As for `COC(COC(=O)c1cc2c(cc1F)COB2O)OC` [Compound 444], the melting point is 109 to 111 °C. For the same compound, the inhibition at 200 ppm in the series on Pythium ultimum was not below 80%.

Take `O=C(OCC(Cl)(Cl)Cl)c1cc2c(cc1Cl)COB2O` [Compound 197]: the inhibition at 200 ppm (in [1]; in [2]; in series [3]; in the series with Fusarium culmorum; in series [4]; in the series on Pythium ultimum) was not below 80% in each case. Also, in [5], the inhibition at 200 ppm is not below 80%.

`COC(CNC(=O)c1cc2c(cc1Cl)COB2O)OC` [Compound 435] registered a melting point of 150 to 152 °C.

The compound `O=C(OCCO)c1cc2c(cc1Cl)COB2O` [Compound 440] had a melting point of 270 to 272 °C. Further, the inhibition at 200 ppm in the series with Pythium ultimum was not below 80%.

Turning to `C=CCCOC(=O)c1cc2c(cc1Cl)COB2O` [Compound 203], the inhibition at 200 ppm (in series [1]; in [2]; in series [3]; in the series with Gaeumannomyces graminis; in the series with Fusarium culmorum; in [4]) was not below 80% throughout. For the same compound, the inhibition at 200 ppm (in the series on Pythium ultimum; in series [5]) was not below 80% each time.

Take `O=C(OC1CSC1)c1ccc2c(c1)B(O)OC2` [Compound 362]: the inhibition at 200 ppm (in [1]; in series [3]; in the series with Gaeumannomyces graminis; with Fusarium culmorum; in [4]; in the series with Pythium ultimum) was not below 80% in each case. Moreover, in series [5], the inhibition at 200 ppm was not below 80%.

For the compound `COC(COC(=O)c1ccc2c(c1)B(O)OC2)OC` [Compound 443], the melting point was 110 to 112 °C. The inhibition at 200 ppm with Pythium ultimum was not below 80%.

`CC(=O)C(C)OC(=O)c1cc2c(cc1F)COB2O` (stereo not shown) [Compound 445] gave a melting point of 108 to 110 °C. Further, in the series with Pythium ultimum, the inhibition at 200 ppm was not below 80%.

On to `C=CCCOC(=O)c1ccc2c(c1)B(O)OC2` [Compound 329], for which the inhibition at 200 ppm (in [1]; in [3]; in the series with Gaeumannomyces graminis; with Fusarium culmorum; in series [4]; with Pythium ultimum) was not below 80% throughout. The inhibition at 200 ppm in series [5] was not below 80%. For the same compound, the pest or weed control at 200 ppm with Plasmopara viticola is not below 80%.

Turning to `O=C(OC1CCC1)c1cc2c(cc1Cl)COB2O` [Compound 205], the inhibition at 200 ppm (in series [1]; in [2]; in series [3]; in the series with Gaeumannomyces graminis; with Fusarium culmorum; in series [4]) was not below 80% in each case. Besides, the inhibition at 200 ppm (in the series with Pythium ultimum; in series [5]) was not below 80% throughout.

In the case of `C#CCCCOC(=O)c1ccc2c(c1)B(O)OC2` [Compound 334], the inhibition at 200 ppm (in [1]; in series [2]; in series [3]; with Gaeumannomyces graminis; in the series with Fusarium culmorum; in series [4]) was not below 80% in each case. Moreover, the inhibition at 200 ppm (with Pythium ultimum; in series [5]) was not below 80% in each case. Moreover, the pest or weed control at 200 ppm with Plasmopara viticola is not below 80%.

In turn, `CC(=O)COC(=O)c1cc2c(cc1F)COB2O` [Compound 448] gave a melting point of 122 to 124 °C. Moreover, the inhibition at 200 ppm in the series on Pythium ultimum is not below 80%. Moreover, in [5], the inhibition at 200 ppm was not below 80%.

`O=C(OCCO)c1cc2c(cc1F)COB2O` [Compound 243]: the melting point is 274 to 276 °C. The inhibition at 200 ppm with Pythium ultimum is not below 80%.

In turn, `COC(CNC(=O)c1ccc2c(c1)B(O)OC2)OC` [Compound 242] gave a melting point of 148 to 150 °C. The inhibition at 200 ppm with Pythium ultimum was not below 80%.

In the case of `C[Si](C)(C)C#CCOC(=O)c1cc2c(cc1F)COB2O` [Compound 430], the inhibition at 200 ppm (in [1]; in series [3]; with Gaeumannomyces graminis; in the series with Fusarium culmorum; in [4]; in the series on Pythium ultimum) was not below 80% each time. In addition, the pest or weed control at 200 ppm with Plasmopara viticola was not below 80%.

As to `C#CCOC(=O)c1cc2c(cc1F)COB2O` [Compound 381], the inhibition at 200 ppm (in [2]; in [3]; in the series with Gaeumannomyces graminis; in the series on Fusarium culmorum; in series [4]; with Pythium ultimum) was not below 80% throughout. The inhibition at 200 ppm in series [5] is not below 80%. For the same compound, in the series on Plasmopara viticola, the pest or weed control at 200 ppm is not below 80%.

As for `O=C(OCC1CCC1)c1cc2c(cc1F)COB2O` [Compound 413], the inhibition at 200 ppm (in series [3]; with Gaeumannomyces graminis; in the series with Fusarium culmorum; in series [4]; with Pythium ultimum; in series [5]) was not below 80% throughout.

In the case of `C#CCCOC(=O)c1cc2c(cc1Cl)COB2O` [Compound 229], the inhibition at 200 ppm (in series [1]; in series [2]; in series [3]; in the series on Gaeumannomyces graminis; in the series on Fusarium culmorum; in series [4]) was not below 80% in each case. The inhibition at 200 ppm (in the series on Pythium ultimum; in [5]) was not below 80% in each case.

As to `O=C(OCc1ccsc1)c1cc2c(cc1Cl)COB2O` [Compound 439], the inhibition at 200 ppm (in series [1]; in [2]; in series [3]; in the series with Gaeumannomyces graminis; in series [4]; in the series with Pythium ultimum) was not below 80% in each case. Also, the inhibition at 200 ppm in [5] is not below 80%. In addition, the pest or weed control at 200 ppm in the series with Plasmopara viticola was not below 80%.
